Data as given in US20190048016A1, “SUBSTITUTED BRIDGED UREA ANALOGS AS SIRTUIN MODULATORS” (GlaxoSmithKline Intellectual Property(No.2)Limited, priority 2014, published 2019).

Target: T1, SIRT1 (Homo sapiens, UniProt Q96EB6)
T1 sequence (Q96EB6 1-747): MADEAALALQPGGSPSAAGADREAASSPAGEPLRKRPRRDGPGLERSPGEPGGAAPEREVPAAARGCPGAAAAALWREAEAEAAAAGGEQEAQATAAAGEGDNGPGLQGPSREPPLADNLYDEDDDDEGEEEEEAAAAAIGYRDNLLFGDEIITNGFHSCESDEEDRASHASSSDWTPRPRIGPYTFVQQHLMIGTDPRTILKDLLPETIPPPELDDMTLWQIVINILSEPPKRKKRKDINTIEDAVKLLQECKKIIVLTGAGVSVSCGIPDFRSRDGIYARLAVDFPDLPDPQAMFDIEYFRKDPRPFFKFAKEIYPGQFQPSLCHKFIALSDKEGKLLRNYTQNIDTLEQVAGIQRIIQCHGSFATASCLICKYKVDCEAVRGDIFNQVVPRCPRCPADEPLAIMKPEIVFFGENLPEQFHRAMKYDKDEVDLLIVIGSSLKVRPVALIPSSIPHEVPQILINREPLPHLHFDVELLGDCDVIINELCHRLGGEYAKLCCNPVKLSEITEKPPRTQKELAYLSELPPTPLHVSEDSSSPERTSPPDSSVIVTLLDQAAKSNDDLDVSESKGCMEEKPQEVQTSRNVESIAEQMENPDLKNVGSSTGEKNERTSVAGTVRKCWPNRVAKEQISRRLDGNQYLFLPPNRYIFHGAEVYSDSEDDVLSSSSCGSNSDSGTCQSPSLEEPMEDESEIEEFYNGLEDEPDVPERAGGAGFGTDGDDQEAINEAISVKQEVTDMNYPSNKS
Assay: Trp mass spectrometry assay of SIRT1 activation (deacetylation of Ac-R-H-K-K(Ac)-W-NH2 peptide, OAADPR formation)
Format: biochemical
Conditions: Trp peptide 0.5 μM, 120 μM βNAD+, 10 nM SIRT1, 25 min, 25° C.; for Emax: 25 min, read-out: TRP MAX RESP (percent maximum fold activation relative to control = 100%)
Summary of the method: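 10 nM His-tagged SIRT1 (E. coli expressed) with 0.5 μM Ac-RHKK(Ac)W-NH2 and 120 μM βNAD+, 25 min at 25° C, HEPES pH 7.5, […]; formic acid stop. OAADPR or deacetylated peptide measured by mass spectrometry; EC1.5 = concentration giving 150% activity versus DMSO control; maximum activation also reported.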

Compound | Emax | TRP Activity (EC1.5, concentration of compound required to increase SIRT1 activity by 50% over control)
O=C(Nc1ncccn1)N1c2nc(N3CCCC(C(F)(F)F)C3)ccc2N2CCC[C@H]1C2 (single isomer, unassigned) [Example 18] | ≥ 150% | A (EC1.5<1 μM)
O=C(Nc1ccc(F)cn1)N1c2nc(N3CCCC(C(F)(F)F)C3)ccc2N2CCC[C@H]1C2 (single isomer, unassigned) [Example 24] | ≥ 150% | A (EC1.5<1 μM)
Cc1ccc2c(NC(=O)N3c4nc(C(=O)N[C@H](C)C(F)(F)F)ccc4N4CCC[C@H]3C4)n[nH]c2n1 [Example 43, (9S)-N10-(6-methyl-1H-pyrazolo[3,4-b]pyridin-3-yl)-N2-((R)-1,1,1-trifluoropropan-2-yl)-8,9-dihydro-6H-5,9-methanopyrido[2,3-b][1,4]diazocine-2,10(7H)-dicarboxamide] | ≥ 150% | A (EC1.5<1 μM)

The next lines start with the values.

Emax | TRP Activity (EC1.5, concentration of compound required to increase SIRT1 activity by 50% over control) | Compound
≥ 150% | A (EC1.5<1 μM) | O=C(Nc1cncc(OCC(O)CO)n1)N1c2nc(-c3cccc(C(F)(F)F)c3)c(Cl)cc2N2CCC[C@H]1C2 (stereo in doubt) [Example 67, (9S)-3-chloro-N-(6-((R)-2,3-dihydroxypropoxy)pyrazin-2-yl)-2-(3-(trifluoromethyl)phenyl)-8,9-dihydro-6H-5,9-methanopyrido[2,3-b][1,4]diazocine-10(7H)-carboxamide]
≥ 150% | A (EC1.5<1 μM) | Cc1ccc2c(NC(=O)N3c4nc(C(=O)N[C@H](C)C(F)(F)F)cc(C)c4N4CCC[C@H]3C4)n[nH]c2n1 [Example 47, (9S)-4-methyl-N10-(6-methyl-1H-pyrazolo[3,4-b]pyridin-3-yl)-N2-((R)-1,1,1-trifluoropropan-2-yl)-8,9-dihydro-6H-5,9-methanopyrido[2,3-b][1,4]diazocine-2,10(7H)-dicarboxamide]
